Test results published in US10709684B2, “SGLT-2 inhibitors for treating metabolic disorders in patients with renal impairment or chronic kidney disease” (Merck Sharp & Dohme Corp., priority 2014, dated 2020).
Read-outs that look alike come from different tables or passages of the source.

Experiments:
Type in all cases: in vivo, human
[1] = tested on: healthy and T2DM subjects; experiment: Phase 1 single dose study: safety and tolerability; conditions: single 15 mg dose; subjects with normal renal function and T2DM subjects with renal impairment
From the text: (§1) Ertugliflozin inhibits renal glucose reabsorption resulting in urinary glucose excretion, thereby reducing plasma glucose and HbA1c. The glycemic efficacy of SGLT2 inhibitors depends on the amount of glucose filtered through the kidney and the kidney is potentially a site of ertugliflozin metabolism. As renal impairment (RI) is a co-morbidity of T2DM, this study evaluated the effect of RI on the pharmacokinetics, pharmacodynamics (as measured by 24-hour urinary glucose excretion [UGE24]), safety, and tolerability of ertugliflozin in subjects with T2DM.
(§2) In this Phase 1, multi-center, open-label study, a single 15 mg oral dose of ertugliflozin was administered in the fasted state to healthy and T2DM subjects with normal renal function (estimated glomerular filtration rate [eGFR]≥90 mL/min) and in T2DM subjects with mild RI (eGFR 60-89 mL/min), moderate RI (eGFR 30-59 mL/min) and severe RI (eGFR<30 mL/min). Serial blood samples and urine samples at specified intervals were collected for 96 hours post-dose for pharmacokinetic evaluation and for measurement of UGE24.

[2] = tested on: urinary glucose excretion; experiment: Phase 1 single dose study: pharmacodynamics, 24-hour urinary glucose excretion (UGE24); conditions: single 15 mg oral dose; for Change from baseline in UGE24: fasted, geometric mean
From the text: (§3) Results of a Phase I, Single Dose Study to Study the Effect of Renal Impairment on the Pharmacokinetics and Pharmacodynamics of Ertugliflozin in Subjects with Type 2 Diabetes Mellitus (T2DM)
as §1, §2

[3] = Phase 1 single dose study: pharmacokinetics of ertugliflozin in renal impairment; conditions: single 15 mg oral dose; for AUC(0-inf) / Cmax: geometric mean
From the text: as §3, §1, §2

[4] = Healthy Normal renal function (eGFR>=90 mL/min), n = 8, fasted
[5] = T2DM Normal renal function (eGFR>=90 mL/min), n = 6, fasted

AUC(0-inf) [3, 4]: 1.236 µg·h/mL
Cmax [3, 4]: 0.219 µg/mL
Cmax ([3]; T2DM Mild RI (eGFR 60-89 mL/min), n = 8, fasted): 0.313 µg/mL
Cmax ([3]; T2DM Moderate RI (eGFR 30-59 mL/min), n = 8, fasted): 0.306 µg/mL
AUC(0-inf) [3, 5]: 1.199 µg·h/mL
Cmax [3, 5]: 0.216 µg/mL
Cmax ([3]; T2DM Severe RI (eGFR<30 mL/min), n = 6, fasted): 0.196 µg/mL
effect of renal insufficiency on systemic exposure ([3]; compared to subjects with normal renal function): moderately increased
AUC(0-inf) ([3]; human, in vivo, po, 15 mg, T2DM Mild RI (eGFR 60-89 mL/min), n = 8, fasted, read-out: AUC0-inf): 1.91 µg·h/mL
AUC(0-inf) ([3]; human, in vivo, po, 15 mg, T2DM Moderate RI (eGFR 30-59 mL/min), n = 8, fasted, read-out: AUC0-inf): 2.08 µg·h/mL
AUC(0-inf) ([3]; human, in vivo, po, 15 mg, T2DM Severe RI (eGFR<30 mL/min), n = 6, fasted, read-out: AUC0-inf): 1.9 µg·h/mL
exposures in healthy subjects versus T2DM subjects with normal renal function ([3]; fasted): similar
SMILES: CCOc1ccc(Cc2cc([C@]34OC[C@](CO)(O3)[C@@H](O)[C@H](O)[C@H]4O)ccc2Cl)cc1 [Ertugliflozin, (1S,2S,3S,4R,5S)-5-[4-chloro-3-(4-ethoxy-benzyl)-phenyl]-1-hydroxymethyl-6,8-dioxa-bicyclo[3.2.1]octane-2,3,4-triol]
tolerability [1]: well tolerated
Change from baseline in UGE24 ([2]; Healthy Normal renal function (eGFR>=90 mL/min), n = 8): 46.3 g
Change from baseline in UGE24 ([2]; T2DM Mild RI (eGFR 60-89 mL/min), n = 8): 36.0 g
Change from baseline in UGE24 ([2]; T2DM Moderate RI (eGFR 30-59 mL/min), n = 8): 27.6 g
Change from baseline in UGE24 ([2]; T2DM Normal renal function (eGFR>=90 mL/min), n = 6): 72.3 g
Change from baseline in UGE24 ([2]; T2DM Severe RI (eGFR<30 mL/min), n = 6): 10.1 g
UGE24 trend with renal function ([2]; despite the higher exposure): decreased with declining renal function
